Where no end group is shown, it is not given here.
How the values were obtained:
Assay type in all cases: in vivo, maize
[1] = tested on: B73 and homozygous fea2 and fea3 mutant seedlings; assay: Clavata3 peptide root assay (primary root length of seedlings on agar plates); details: agar plates containing CLV3 peptide, after 7 days
Method: In Arabidopsis, CLAVATA2 activity can be detected by responses of root growth to CLAVATA3 (CLV3) peptide. To analyze whether FEA3 and FEA2 respond to CLV3, and determine if they act in a common pathway a CLV3 peptide assay was performed. B73 and homozygous fea2 and fea3 mutant seedlings were germinated and grown on agar plates containing CLV3 peptide. As a control, seedlings were also grown on plates containing a mutated version of the peptide and on plates without any peptide. After 7 days the length of the primary root was measured.

[2] = tested on: B73 and fea3 mutant seedlings; assay: Clavata3-like peptide root assay (primary root length of seedlings on agar plates); details: 5 μM or 10 μM peptide, after 7 days
Method: To analyze whether FEA3 responds to CLV3-like peptides, and determine if they act in a common pathway, a CLV3 peptide assay was performed. The peptides used were ZCL3 (Zea mays CLE-like 3; SEQ ID NO:32), FCP1 (SEQ ID NO:33), CLV3 (SEQ ID NO:34), CLE20 (SEQ ID NO:35), CLE40 (SEQ ID NO:36), ZCL21 ([…]; SEQ ID NO:37), and ZCL23 (Zea mays CLE-like 23; SEQ ID NO:38).
The ZCL peptides were found in maize sequences in the NCBI database by homology search using the CLV3, CLE, and rice related peptides (Fiers et al Plant Cell (2005), 17: 2542-2553; Suzaki et al (2008), Plant Cell, 20: 2049-2058).
B73 and fea3 mutant seedlings were germinated and grown on agar plates containing each 5 μM or 10 μM peptide. As a control, seedlings were also grown on plates containing a scramble of the peptide. After 7 days the length of the primary root was measured.

Wt and fea3 embryos = assay: Embryo culture assay in presence of FCP1 peptide (embryo SAM growth); details: 20 μM peptide, two weeks after planting
Method: Wt and fea3 embryos were cultured in the presence of 20 μM FCP1 peptide (SEQ ID NO:33) or 20 μM scrambled peptide. For measurement of embryo SAM growth, about 10 days after pollination, embryos were sterilized (whole corn was sterilized, not individual young seeds) and dissected embryos and put the embryos down on the media and the measurement of SAM size was done two weeks after planting (embryo culture).

“CLV3: CLAVATA3 (CLV3) peptide (RTVPSGPDPLHH; ends and bridges not checked; listed as Arabidopsis thaliana)” was tested, and the “root growth response (length of the primary root)” value (from here on “root growth response”) ([1]; B73 wild type plants) was “strong root growth inhibition”, the “root growth response” value ([1]; homozygous fea2 mutants) was “do not respond” and the “root growth response” value ([1]; homozygous fea3 mutants) was “respond”. For the same substance, the “root growth response” value ([2]; B73 wild type plants) was “strong root growth inhibition”.
With “ZCL3: Zea mays CLE-like 3 peptide, found in maize sequences by homology search using CLV3, CLE and rice related peptides (RPVPSGPDPIHH; Zea mays)” the “root growth response” value ([2]; B73 wild type plants) was “strong root growth inhibition”.
For “FCP1: CLV3-like peptide used for the CLV3/CLV3-like peptide assay (REVPTGPDPIHH; listed as Oryza sativa)”, the “embryo SAM growth (SAM size)” value (Wt and fea3 embryos; WT embryos) was “strongly inhibited”, the “embryo SAM growth (SAM size)” value (Wt and fea3 embryos; fea3 embryos) was “resistance” and the “root growth response” value ([2]; B73 wild type plants) was “strong root growth inhibition”. For the same substance, the “root growth response” value ([2]; fea3 mutants) was “less sensitivity”.
